Assay results published in US7737161B2, “Condensed furan compounds” (Mitsubishi Tanabe Pharma Corporation, priority 2003, dated 2010).

Molecular target: T1, human FXa (Homo sapiens, UniProt P00742)
T1 construct: purchased Enzyme Research Laboratories, Inc
Experiment: Inhibitory effect on activated blood coagulation factor X (chromogenic substrate S-2222)
Assay type: biochemical
Details: human FXa 0.05 U/ml, S-2222 0.5 mM, 37° C., pH 8.4
Protocol: A substrate solution was prepared by dissolving chromogenic substrate S-2222 at the concentration of 0.625 mM (final concentration 0.5 mM) in 100 mM Tris buffer (pH 8.4) containing 200 mM sodium chloride and 0.1% bovine serum albumin, and a test compound solution was prepared by dissolving a test compound in a buffer containing 10% dimethyl sulfoxide. The test compound solution (25 μl) was added to the substrate solution (200 μl). In the control group, 25 μl of the buffer containing 10% dimethyl sulfoxide was used instead of the test compound solution.
After pre-warming at 37° C. for 3 minutes, 25 μl of human FXa (Enzyme Research Laboratories, Inc.) dissolved at 0.5 U/ml in a buffer was added to the reaction mixture (final concentration of FXa: 0.05 U/ml) to initiate the reaction. During a 5-minute reaction at 37° C., the absorbance at 405 nm was monitored continuously on a 96 well microplate reader (Spectra MAX250, Molecular Devices) and the increase of absorbance was used as an index of FXa activity. In order to evaluate FXa inhibitory activity of a test compound, the 50% inhibitory concentration of the test compound for FXa activity compared to the control group (IC50 value) was calculated using analytic soft (GraphPad Prism, GraphPad Software, Inc.).

T1 sequence (P00742 235-488 limits assumed): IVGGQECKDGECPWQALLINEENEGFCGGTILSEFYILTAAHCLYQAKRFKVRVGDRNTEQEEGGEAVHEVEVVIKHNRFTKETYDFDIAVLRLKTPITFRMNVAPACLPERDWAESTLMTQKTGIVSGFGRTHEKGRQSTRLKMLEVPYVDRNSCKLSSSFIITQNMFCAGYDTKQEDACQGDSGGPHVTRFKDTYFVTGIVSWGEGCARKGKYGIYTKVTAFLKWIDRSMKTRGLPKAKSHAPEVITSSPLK
T1 sequence (P00742 41-179 partner limits assumed): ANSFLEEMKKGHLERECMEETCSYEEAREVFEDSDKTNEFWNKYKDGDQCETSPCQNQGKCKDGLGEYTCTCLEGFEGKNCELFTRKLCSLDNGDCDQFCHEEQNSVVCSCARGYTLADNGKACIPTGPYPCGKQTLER

Q: With `COc1ccc2oc(C(=O)Nc3ccc(Cl)cn3)c(NC(=O)[C@H]3CC[C@H](N(C)C)CC3)c2n1` [Example 36] as the compound, how does the IC50 read?
A: The IC50 was 0.0108 µM.
